In one data set the target is T1, human mu opioid receptor (Homo sapiens, UniProt P35372).
T1 construct: purchased Perkin Elmer, Boston, Mass; 6110535; host or cells: CHO cells
The data set is described as follows: radioligand binding, human mu opioid receptor, CHO cell membranes. The following applies: species not given, read-out: μ.

The target of another data set is T2, human delta receptor (Homo sapiens, UniProt P41143).
T2 construct: purchased Perkin Elmer, Boston, Mass; 6110549; host or cells: HEK-293 cells
The data set is described as follows: radioligand binding, human delta receptor, HEK-293 cell membranes. The following applies: cell not marked (rat), species not given, read-out: δ.

The subject of data set [1] is seizure-like convulsions in mice. The data set is described as follows: mouse seizure-like convulsions. It counts as in vivo. As for the experimental part: Mouse Seizure-Like Convulsions and antinociception: The central (CNS) effects of the compound were tested with central delta receptor mediated seizure-like convulsions and central mu opioid receptor mediated antinociceptive effects in mice. Male CD-1 mice (Charles River, Raleigh, N.C.) weighing 20-25 g were used to determine the seizure-like convulsion and antinociception activities for compounds.
They were then observed for seizure-like convulsions for one hour following the treatment. A seizure-like event was recorded if a mouse had uncontrollable clonic (or tonic/clonic) muscle movements that encompassed its entire body, usually followed by a brief cataleptic period. Catalepsy was determined by placing the animal's front paws on a horizontal bar held 2-3 inches from the cage floor. Cataleptic animals made no attempt to remove their paws.

The subject of another data set is mouse vas deferens. The data set is described as follows: electrically stimulated mouse vas deferens (MVD) ED50. It counts as cell-based. The following applies: ED50, inhibition of electrically induced contractions.

pEC50, pKi: −log10 of the molar value.

This passage reports Ki, Seiz. and EC50 results from patent publication US7683168B2, “Compositions of novel opioid compounds and method of use thereof” (priority 2005, dated 2010).

T1 sequence (P35372 whole entry): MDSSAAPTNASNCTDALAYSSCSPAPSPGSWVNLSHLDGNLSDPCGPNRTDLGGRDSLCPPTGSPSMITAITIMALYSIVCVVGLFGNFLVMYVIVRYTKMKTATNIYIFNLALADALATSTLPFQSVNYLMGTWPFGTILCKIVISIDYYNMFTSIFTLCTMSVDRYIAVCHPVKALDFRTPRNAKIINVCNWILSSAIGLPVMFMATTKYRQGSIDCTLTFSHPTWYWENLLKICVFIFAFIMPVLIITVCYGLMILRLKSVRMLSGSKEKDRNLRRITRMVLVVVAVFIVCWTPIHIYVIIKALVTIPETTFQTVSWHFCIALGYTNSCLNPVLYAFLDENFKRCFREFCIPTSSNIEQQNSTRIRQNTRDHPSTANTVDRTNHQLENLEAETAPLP
T2 sequence (P41143 whole entry): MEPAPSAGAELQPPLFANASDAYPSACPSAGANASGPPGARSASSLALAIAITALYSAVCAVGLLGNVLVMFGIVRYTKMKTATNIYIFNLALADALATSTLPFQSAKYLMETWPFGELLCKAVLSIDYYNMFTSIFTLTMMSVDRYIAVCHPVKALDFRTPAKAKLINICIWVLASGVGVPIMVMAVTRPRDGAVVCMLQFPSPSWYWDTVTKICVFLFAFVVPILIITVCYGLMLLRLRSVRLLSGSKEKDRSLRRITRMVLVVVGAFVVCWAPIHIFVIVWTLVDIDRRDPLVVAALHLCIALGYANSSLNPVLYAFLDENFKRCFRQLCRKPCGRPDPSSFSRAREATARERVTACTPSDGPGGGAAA

On to `CCOC(=O)CN1CCCN(C(=O)c2cccc(C(c3cccc(O)c3)N3C[C@@H](C)N(CC4CC4)C[C@@H]3C)c2)CC1` (stereo partly drawn), for which the values for the pKi on human mu opioid receptor and on human delta receptor were 8.41 and 8.72, respectively. Moreover, in data set [1] (20 mg/kg IV), the Seiz. amounted to 0% 20 mg/kg IV. Moreover, the pEC50 – broadly, the EC50 on a negative log10 scale, so that one unit is a factor of ten – with mouse vas deferens was 7.41.

Regarding `C[C@@H]1CN([C@@H](c2cccc(O)c2)c2cccc(C(=O)N3CCN(CCCCCC(=O)O)CC3)c2)[C@@H](C)CN1Cc1cccc(F)c1` [Example 99, 6-(4-{3-[(R)-((2S,5R)-4-(3-Fluorobenzyl)-2,5-dimethyl-piperazin-1-yl)-(3-hydroxy-phenyl)-methyl]-benzoyl}-piperazin-1-yl)-hexanoic acid], on human delta receptor, the pKi was 7.80. Also, in data set [1] (10 mg/kg IV), the Seiz. is listed as 0% 10 mg/kg IV. For the same compound, in the data set on mouse vas deferens, the pEC50 was 7.98.

For the compound `C=CCN1C[C@H](C)N([C@@H](c2cccc(O)c2)c2cccc(C(=O)N3CCC[C@H]3C(=O)O)c2)C[C@H]1C` [Example 144, 1-{3-[(R)-((2S,5R)-4-Allyl-2,5-dimethyl-piperazin-1-yl)-(3-hydroxy-phenyl)-methyl]-benzoyl}-pyrrolidine-2-carboxylic acid], the pKi on human delta receptor is 9.21. This compound registered a Seiz. in data set [1] (10 mg/kg IV) of 0% 10 mg/kg IV. For the same compound, the negative logarithm of the EC50 (pEC50) in the data set with mouse vas deferens is 8.94.

On to `C=CCN1C[C@H](C)N([C@@H](c2cccc(O)c2)c2cccc(C(=O)N3CCN(CCCCCCC(=O)O)CC3)c2)C[C@H]1C` [Example 109, 7-(4-{3-[(R)-((2S,5R)-4-Allyl-2,5-dimethyl-piperazin-1-yl)-(3-hydroxy-phenyl)-methyl]-benzoyl}-piperazin-1-yl)-heptanoic acid], for which the pKi on human delta receptor was 8.72. In data set [1] (10 mg/kg IV), the Seiz. was determined as 0% 10 mg/kg IV. This compound gave a pEC50 in the data set on mouse vas deferens of 8.13.

For `C=CCN1C[C@H](C)N(C(c2cccc(O)c2)c2cccc(C(=O)N3CCCN(Cc4cccc(C(=O)O)c4)CC3)c2)C[C@H]1C` (stereo partly drawn), on human mu opioid receptor, the pKi is 8.26. Besides, in data set [1] (10 mg/kg IV), the Seiz. was determined as 0% 10 mg/kg IV. This compound showed a pEC50 in the data set with mouse vas deferens of 8.21.

Consider `C=CCN1C[C@H](C)N([C@@H](c2cccc(O)c2)c2cccc(C(=O)N(C)CC(=O)OCC)c2)C[C@H]1C` [Example 151, ({3-[(R)-((2S,5R)-4-Allyl-2,5-dimethyl-piperazin-1-yl)-(3-hydroxy-phenyl)-methyl]-benzoyl}-methyl-amino)-acetic acid ethyl ester], for which the pKi at human mu opioid receptor was 9.30. The Seiz. in data set [1] (10 mg/kg IV) stood at 100% 10 mg/kg IV. Besides, the pEC50 in the data set with mouse vas deferens was 8.80.

The compound `CCOC(=O)CCCCCCN1CCN(C(=O)c2cccc([C@H](c3cccc(O)c3)N3C[C@@H](C)N(Cc4ccccc4)C[C@@H]3C)c2)CC1` [Example 110, 7-(4-{3-[(R)-((2S,5R)-4-Benzyl-2,5-dimethyl-piperazin-1-yl)-(3-hydroxy-phenyl)-methyl]-benzoyl}-piperazin-1-yl)-heptanoic acid ethyl ester] showed a Seiz. in data set [1] (10 mg/kg IV) of 70% 10 mg/kg IV. This compound showed a pEC50 in the data set with mouse vas deferens of 7.73.

Turning to `C=CCN1C[C@H](C)N([C@@H](c2cccc(O)c2)c2cccc(C(=O)N(C)CC(=O)O)c2)C[C@H]1C` [Example 152, ({3-[(R)-((2S,5R)-4-Allyl-2,5-dimethyl-piperazin-1-yl)-(3-hydroxy-phenyl)-methyl]-benzoyl}-methyl-amino)-acetic acid], the pKi at human delta receptor is 9.15. Moreover, in data set [1] (10 mg/kg IV), the Seiz. is 0% 10 mg/kg IV. The pEC50 in the data set on mouse vas deferens is 8.63.

As to `C[C@@H]1CN([C@@H](c2cccc(O)c2)c2cccc(C(=O)N3CCN(Cc4ccc(C(=O)O)cc4)CC3)c2)[C@@H](C)CN1CC1CC1` [Example 103, 4-(4-{3-[(R)-((2S,5R)-4-Cyclopropylmethyl-2,5-dimethyl-piperazin-1-yl)-(3-hydroxy-phenyl)-methyl]-benzoyl}-piperazin-1-ylmethyl)-benzoic acid], the pKi at human mu opioid receptor is 7.07. Besides, the Seiz. in data set [1] (60 mg/kg PO) worked out at 0% 60 mg/kg PO. The same compound gave a pEC50 with mouse vas deferens of 6.73.

In the case of `C[C@@H]1CN([C@@H](c2cccc(O)c2)c2cccc(C(=O)N3CCN(CC(=O)O)CC3)c2)[C@@H](C)CN1CC1CC1` [Example 71], the values for the pKi on human mu opioid receptor and on human delta receptor were 7.09 and 8.21, respectively. In addition, the pEC50 with mouse vas deferens was 7.45.

For `CCOC(=O)CCCCCCN1CCCN(C(=O)c2cccc(C(c3cccc(O)c3)N3C[C@@H](C)N(Cc4cccc(F)c4)C[C@@H]3C)c2)CC1` (stereo partly drawn), the pKi at human mu opioid receptor is 8.15; on human delta receptor it was 7.88. In the data set on mouse vas deferens, this compound showed a pEC50 of 6.61.

Take `CCOC(=O)CN1CCN(C(=O)c2cccc([C@H](c3cccc(O)c3)N3C[C@@H](C)N(CC4CC4)C[C@@H]3C)c2)CC1` [Example 70, (4-{3-[(R)-((2S,5R)-4-Cyclopropylmethyl-2,5-dimethyl-piperazin-1-yl)-(3-hydroxy-phenyl)-methyl]-benzoyl}-piperazin-1-yl)-acetic acid ethyl ester]: the pKi at human mu opioid receptor was 8.06; on human delta receptor it was 8.46. Also, in the data set with mouse vas deferens, the pEC50 was 7.26.

For the compound `CCOC(=O)CCCCCN1CCCN(C(=O)c2cccc(C(c3cccc(O)c3)N3C[C@@H](C)N(Cc4cccc(F)c4)C[C@@H]3C)c2)CC1` (stereo partly drawn), the pKi on human mu opioid receptor is 7.23; at human delta receptor it was 7.89. In the data set with mouse vas deferens, this compound gave a pEC50 of 6.81.

For the compound `CCOC(=O)CCCN1CCN(C(=O)c2cccc([C@H](c3cccc(O)c3)N3C[C@@H](C)N(Cc4cccc(F)c4)C[C@@H]3C)c2)CC1` [Example 81, 4-(4-{3-[(R)-((2S,5R)-4-(3-Fluorobenzyl)-2,5-dimethyl-piperazin-1-yl)-(3-hydroxy-phenyl)-methyl]-benzoyl}-piperazin-1-yl)-butyric acid ethyl ester], the pKi on human mu opioid receptor is 8.31; on human delta receptor it was 7.90. This compound also gave a pEC50 with mouse vas deferens of 7.35.

`C[C@@H]1CN([C@@H](c2cccc(O)c2)c2cccc(C(=O)N3CCN(CC(=O)O)CC3)c2)[C@@H](C)CN1Cc1cccc(F)c1` [Example 67, (4-{3-[(R)-[(2S,5R)-4-(3-Fluoro-benzyl)-2,5-dimethyl-piperazin-1-yl]-(3-hydroxy-phenyl)-methyl]-benzoyl}-piperazin-1-yl)-acetic acid]: the pKi at human mu opioid receptor was 7.97. The compound also showed a Seiz. in data set [1] (10 mg/kg IV) of 0% 10 mg/kg IV. The compound also showed a pEC50 in the data set on mouse vas deferens of 8.55.

With `CCOC(=O)CCCN1CCCN(C(=O)c2cccc(C(c3cccc(O)c3)N3C[C@@H](C)N(CC4CC4)C[C@@H]3C)c2)CC1` (stereo partly drawn), the pKi on human mu opioid receptor is 8.41; at human delta receptor, 7.99. Moreover, the pEC50 in the data set on mouse vas deferens was 7.03.

For `CCOC(=O)N1CCN(C(=O)c2cccc([C@H](c3cccc(O)c3)N3C[C@@H](C)N(Cc4cccc(F)c4)C[C@@H]3C)c2)CC1` [Example 60, 4-{3-[(R)-[(2S,5R)-4-(3-Fluorobenzyl)-2,5-dimethylpiperazin-1-yl]-(3-hydroxyphenyl)methyl]benzoyl}piperazine-1-carboxylic acid ethyl ester], the pKi on human mu opioid receptor was 8.01; at human delta receptor it was 7.88. Besides, the pEC50 in the data set on mouse vas deferens was 7.33.

With `C=CCN1C[C@H](C)N([C@@H](c2cccc(O)c2)c2cccc(C(=O)N3CCN(CCCCCC(=O)OCC)CC3)c2)C[C@H]1C` [Example 93, 6-(4-{3-[(R)-((2S,5R)-4-Allyl-2,5-dimethyl-piperazin-1-yl)-(3-hydroxy-phenyl)-methyl]-benzoyl}-piperazin-1-yl)-hexanoic acid ethyl ester], the pKi on human mu opioid receptor was 7.52; at human delta receptor it was 8.27. Moreover, the pEC50 in the data set with mouse vas deferens is 7.23.

As for `CCOC(=O)CN1CCN(C(=O)c2cccc([C@H](c3cccc(O)c3)N3C[C@@H](C)N(Cc4cccc(F)c4)C[C@@H]3C)c2)CC1` [Example 66, (4-{3-[(R)-[(2S,5R)-4-(3-Fluoro-benzyl)-2,5-dimethyl-piperazin-1-yl]-(3-hydroxy-phenyl)-methyl]-benzoyl}-piperazin-1-yl)-acetic acid ethyl ester], the pKi on human mu opioid receptor was 8.30; at human delta receptor it was 8.89. Also, the pEC50 with mouse vas deferens is 7.66.

Take `C[C@@H]1CN(C(c2cccc(O)c2)c2cccc(C(=O)N3CCCN(CCCCCCC(=O)O)CC3)c2)[C@@H](C)CN1CC1CC1` (stereo partly drawn): the pKi is 7.39 on human mu opioid receptor and 7.30 at human delta receptor. For the same compound, the pEC50 in the data set on mouse vas deferens was 6.47.

In the case of `CCOC(=O)CCCCN1CCCN(C(=O)c2cccc(C(c3cccc(O)c3)N3C[C@@H](C)N(CC4CC4)C[C@@H]3C)c2)CC1` (stereo partly drawn), the pKi is 7.52 on human mu opioid receptor and 7.05 on human delta receptor. In addition, the pEC50 in the data set with mouse vas deferens is 6.94.

For `CCOC(=O)CCCCCCN1CCCN(C(=O)c2cccc(C(c3cccc(O)c3)N3C[C@@H](C)N(CC4CC4)C[C@@H]3C)c2)CC1` (stereo partly drawn), the pKi at human mu opioid receptor is 8.10; at human delta receptor, 7.35. This compound showed a negative logarithm of the EC50 (pEC50) in the data set on mouse vas deferens of 7.06.

`C=CCN1C[C@H](C)N(C(c2cccc(O)c2)c2cccc(C(=O)N3CCCN(Cc4ccccc4C(=O)O)CC3)c2)C[C@H]1C` (stereo partly drawn): the pKi at human mu opioid receptor is 8.85. In data set [1] (10 mg/kg IV), this compound gave a Seiz. of 40% 10 mg/kg IV. Moreover, in the data set on mouse vas deferens, the pEC50 is 8.66.

Consider `C[C@@H]1CN(C(c2cccc(O)c2)c2cccc(C(=O)N3CCCN(CCCC(=O)O)CC3)c2)[C@@H](C)CN1CC1CC1` (stereo partly drawn), for which the pKi at human mu opioid receptor is 7.58; at human delta receptor, 6.28. For the same compound, in the data set on mouse vas deferens, the pEC50 is 7.22.

With `CCOC(=O)CCCCCCN1CCCN(C(=O)c2cccc(C(c3cccc(O)c3)N3C[C@@H](C)N(Cc4ccccc4)C[C@@H]3C)c2)CC1` (stereo partly drawn), the pKi at human mu opioid receptor was 8.42; at human delta receptor, 8.62. The pEC50 with mouse vas deferens is 7.54.
